# In ChEMBL document CHEMBL5236580, “Blocking Non-enzymatic Functions by PROTAC-Mediated Targeted Protein Degradation” (J Med Chem, 2022):
# Assays:
# [1] = Antitumor activity against human MDSC cells xenografted in BALB/c mouse assessed as tumor growth inhibition relative to control; format: functional, Myeloid-derived suppressor cell
# [2] = target: T1, Histone-lysine N-methyltransferase EZH2 (Homo sapiens, UniProt Q15910); assay: Inhibition of EZH2 (unknown origin)
# Target sequence in this assay (Q15910 whole entry): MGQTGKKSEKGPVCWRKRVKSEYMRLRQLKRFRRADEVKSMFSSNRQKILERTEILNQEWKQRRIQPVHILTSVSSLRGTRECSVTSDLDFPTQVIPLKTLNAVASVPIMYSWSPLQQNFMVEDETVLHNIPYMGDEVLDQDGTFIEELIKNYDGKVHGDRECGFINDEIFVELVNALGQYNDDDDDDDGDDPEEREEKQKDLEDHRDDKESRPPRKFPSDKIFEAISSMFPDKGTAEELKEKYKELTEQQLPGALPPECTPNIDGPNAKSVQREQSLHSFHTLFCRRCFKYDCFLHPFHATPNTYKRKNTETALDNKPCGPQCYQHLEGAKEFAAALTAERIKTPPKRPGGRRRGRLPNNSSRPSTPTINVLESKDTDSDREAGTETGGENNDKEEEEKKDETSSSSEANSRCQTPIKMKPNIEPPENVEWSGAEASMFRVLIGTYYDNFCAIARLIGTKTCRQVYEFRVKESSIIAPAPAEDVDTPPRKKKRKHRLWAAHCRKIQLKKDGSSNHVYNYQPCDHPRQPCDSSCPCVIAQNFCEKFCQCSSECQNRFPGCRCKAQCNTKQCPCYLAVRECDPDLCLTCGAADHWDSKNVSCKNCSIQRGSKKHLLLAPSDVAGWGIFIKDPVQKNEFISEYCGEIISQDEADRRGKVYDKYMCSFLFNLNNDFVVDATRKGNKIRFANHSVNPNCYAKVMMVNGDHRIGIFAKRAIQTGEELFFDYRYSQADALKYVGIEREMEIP
# [3] = Growth inhibition of human Triple-negative breast cancer cells; format: functional; conditions: Triple-negative breast cancer cell
# [4] = target: T1, Histone-lysine N-methyltransferase EZH2; assay: Induction of degradation of EZH2 in human EOL1 cells; format: cell-based
# Target sequence in this assay (Q15910 whole entry): as above
# [5] = target: T1, Histone-lysine N-methyltransferase EZH2; assay: Induction of degradation of EZH2 in human EOL1 cells assessed as maximum degradation relative to control; format: cell-based
# Target sequence in this assay (Q15910 whole entry, looked up): as the sequence (Q15910 whole entry) above
# [6] = target: T1, Histone-lysine N-methyltransferase EZH2; assay: Induction of degradation of EZH2 in human MV4-11 cells; format: cell-based
# Target sequence in this assay (Q15910 whole entry): as above
# [7] = target: T1, Histone-lysine N-methyltransferase EZH2; assay: Induction of degradation of EZH2 in human MV4-11 cells assessed as maximum degradation relative to control; format: cell-based
# Target sequence in this assay (Q15910 whole entry, looked up): as the sequence (Q15910 whole entry) above
# [8] = target: T2, Nicotinamide phosphoribosyltransferase (Homo sapiens, UniProt P43490); assay: Inhibition of NAMPT (unknown origin)
# Target sequence in this assay (P43490 whole entry): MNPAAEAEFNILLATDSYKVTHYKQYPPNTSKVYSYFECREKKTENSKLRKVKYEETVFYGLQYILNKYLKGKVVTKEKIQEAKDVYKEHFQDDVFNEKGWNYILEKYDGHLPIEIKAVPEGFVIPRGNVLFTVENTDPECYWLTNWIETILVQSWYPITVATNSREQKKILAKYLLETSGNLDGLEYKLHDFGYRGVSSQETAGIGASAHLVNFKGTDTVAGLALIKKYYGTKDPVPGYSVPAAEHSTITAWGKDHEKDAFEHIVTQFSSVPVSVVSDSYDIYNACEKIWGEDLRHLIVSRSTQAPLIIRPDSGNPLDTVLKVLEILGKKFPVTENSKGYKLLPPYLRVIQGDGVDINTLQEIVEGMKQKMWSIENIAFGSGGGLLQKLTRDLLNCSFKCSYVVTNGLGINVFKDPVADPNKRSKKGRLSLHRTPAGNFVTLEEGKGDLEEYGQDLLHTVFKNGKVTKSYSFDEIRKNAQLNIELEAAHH
# [9] = target: T2, Nicotinamide phosphoribosyltransferase; assay: Induction of degradation NAMPT (unknown origin)
# Target sequence in this assay (P43490 whole entry): as above
# [10] = target: T2, Nicotinamide phosphoribosyltransferase; assay: Induction of degradation NAMPT (unknown origin) assessed as maximum degradation relative to control
# Target sequence in this assay (P43490 whole entry, looked up): as the sequence (P43490 whole entry) above
# JeKo-1 = assay: Antiproliferative activity against human JeKo-1 cells harbouring p53 mutant; format: functional, cell-based
# [11] = Antiproliferative activity against human MINO cells harbouring p53 mutant; format: functional, cell-based
# [12] = target: Ubiquitin carboxyl-terminal hydrolase 7 (Homo sapiens, UniProt Q93009); assay: Induction of degradation of USP7 (unknown origin)
# [13] = target: Peptidyl-prolyl cis-trans isomerase FKBP1A (Homo sapiens, UniProt P62942); assay: Induction of degradation of FKBP12 (unknown origin)
# [14] = target: T1, Histone-lysine N-methyltransferase EZH2; assay: Induction of degradation of EZH2 degradation in human MDA-MB-453 cells; format: cell-based
# Target sequence in this assay (Q15910 whole entry): as the sequence (Q15910 whole entry) above
# [15] = Antiproliferative activity against human Triple-negative breast cancer cells assessed as cell growth inhibition; format: functional
# [16] = Antiproliferative activity against human TNBC ductal adenocarcinoma cells assessed as cell growth inhibition; format: functional; conditions: Triple-negative breast cancer cell
# MV4-11 = assay: Induction of cell cycle arrest in human MV4-11 cells assessed as accumulation of cells at G2/M phase measured after 12 hrs; format: functional, cell-based; conditions: MV4-11, 12 h
# Focal adhesion kinase 1 [17] = target: T3, Focal adhesion kinase 1 (Homo sapiens, UniProt Q05397); assay: Induction of degradation of Fak in human PC-3 cells; format: cell-based
# Focal adhesion kinase 1 [18] = target: T3, Focal adhesion kinase 1; assay: Induction of degradation of Fak in human PC-3 cells assessed as maximum degradation relative to control; format: cell-based
# Aurora kinase A = target: T4, Aurora kinase A (Homo sapiens, UniProt O14965); assay: Induction of degradation of AURORA-A in human MV4-11 cells; format: cell-based
# T4 sequence (O14965 whole entry): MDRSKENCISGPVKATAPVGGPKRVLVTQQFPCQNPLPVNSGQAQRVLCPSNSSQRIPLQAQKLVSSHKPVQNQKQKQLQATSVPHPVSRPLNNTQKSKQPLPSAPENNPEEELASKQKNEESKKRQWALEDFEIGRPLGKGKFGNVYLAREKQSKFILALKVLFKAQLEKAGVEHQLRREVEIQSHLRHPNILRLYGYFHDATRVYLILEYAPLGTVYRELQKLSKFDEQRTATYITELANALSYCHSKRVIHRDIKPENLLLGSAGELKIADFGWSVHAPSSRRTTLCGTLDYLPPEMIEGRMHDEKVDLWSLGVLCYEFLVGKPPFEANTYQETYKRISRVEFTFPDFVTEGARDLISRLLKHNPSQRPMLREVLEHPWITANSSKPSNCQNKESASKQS
# [19] = target: Protein cereblon/Protein deacetylase HDAC6 (Homo sapiens, UniProt Q96SW2+Q9UBN7); assay: PROTAC activity at CRBN/HDAC6 in human K562 cells assessed as degradation of HDAC6; format: cell-based
# [20] = target: Protein cereblon/Protein deacetylase HDAC6 (Homo sapiens) (UniProt Q9UBN7+Q96SW2); assay: PROTAC activity at CRBN/HDAC6 in human K562 cells assessed as degradation of HDAC6 relative to control; format: cell-based
# [21] = target: T5, von Hippel-Lindau disease tumor suppressor/Focal adhesion kinase 1 (Mus musculus) (UniProt P34152+P40338); assay: In vivo protac activity at VHL/FAK xenografted in CD-1 mouse liver assessed as increased in FAK degradation at 80 mg/kg, sc incubated for 18 hrs relative to control; format: functional, organism-based
# [22] = target: T5, von Hippel-Lindau disease tumor suppressor/Focal adhesion kinase 1 (Mus musculus); assay: In vivo protac activity at VHL/FAK xenografted in CD-1 mouse liver assessed as reduct ion in FAK level at 80 mg/kg, sc measured after 96 hrs relative to control; format: functional, organism-based
# T5 sequence (P34152 whole entry, looked up): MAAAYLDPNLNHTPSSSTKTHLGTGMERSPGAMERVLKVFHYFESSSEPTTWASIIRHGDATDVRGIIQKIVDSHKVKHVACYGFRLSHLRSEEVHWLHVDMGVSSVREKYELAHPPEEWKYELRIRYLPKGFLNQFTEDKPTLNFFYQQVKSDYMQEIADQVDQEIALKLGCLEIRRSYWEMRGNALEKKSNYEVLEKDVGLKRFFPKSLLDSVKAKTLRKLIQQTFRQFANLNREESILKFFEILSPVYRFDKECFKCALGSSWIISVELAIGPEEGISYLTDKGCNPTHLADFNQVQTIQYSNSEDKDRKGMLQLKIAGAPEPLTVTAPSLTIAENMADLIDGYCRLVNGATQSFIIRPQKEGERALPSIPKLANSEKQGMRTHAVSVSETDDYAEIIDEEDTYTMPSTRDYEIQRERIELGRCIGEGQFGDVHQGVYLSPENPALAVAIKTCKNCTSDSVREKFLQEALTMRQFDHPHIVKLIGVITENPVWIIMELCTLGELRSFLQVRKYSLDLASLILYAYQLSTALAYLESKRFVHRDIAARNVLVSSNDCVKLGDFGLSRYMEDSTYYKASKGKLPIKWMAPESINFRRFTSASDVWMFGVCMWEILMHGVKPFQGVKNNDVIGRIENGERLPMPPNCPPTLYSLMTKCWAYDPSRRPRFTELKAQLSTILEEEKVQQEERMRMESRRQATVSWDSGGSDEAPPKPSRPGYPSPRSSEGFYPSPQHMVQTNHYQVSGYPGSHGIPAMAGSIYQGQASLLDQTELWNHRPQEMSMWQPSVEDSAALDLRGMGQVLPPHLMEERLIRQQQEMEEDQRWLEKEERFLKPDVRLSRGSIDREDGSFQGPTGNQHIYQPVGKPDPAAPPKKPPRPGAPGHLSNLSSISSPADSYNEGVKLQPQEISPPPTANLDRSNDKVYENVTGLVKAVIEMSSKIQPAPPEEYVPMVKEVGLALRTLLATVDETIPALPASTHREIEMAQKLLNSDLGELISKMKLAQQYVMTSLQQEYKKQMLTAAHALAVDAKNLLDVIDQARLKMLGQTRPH
# T5 sequence (P40338 whole entry, looked up): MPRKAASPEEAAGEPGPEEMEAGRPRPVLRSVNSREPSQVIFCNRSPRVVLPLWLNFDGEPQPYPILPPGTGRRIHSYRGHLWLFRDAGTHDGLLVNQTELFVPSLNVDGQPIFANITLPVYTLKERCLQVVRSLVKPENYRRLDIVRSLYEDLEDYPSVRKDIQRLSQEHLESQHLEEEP
# Protein cereblon/Protein deacetylase HDAC6, sequence (Q9UBN7 whole entry): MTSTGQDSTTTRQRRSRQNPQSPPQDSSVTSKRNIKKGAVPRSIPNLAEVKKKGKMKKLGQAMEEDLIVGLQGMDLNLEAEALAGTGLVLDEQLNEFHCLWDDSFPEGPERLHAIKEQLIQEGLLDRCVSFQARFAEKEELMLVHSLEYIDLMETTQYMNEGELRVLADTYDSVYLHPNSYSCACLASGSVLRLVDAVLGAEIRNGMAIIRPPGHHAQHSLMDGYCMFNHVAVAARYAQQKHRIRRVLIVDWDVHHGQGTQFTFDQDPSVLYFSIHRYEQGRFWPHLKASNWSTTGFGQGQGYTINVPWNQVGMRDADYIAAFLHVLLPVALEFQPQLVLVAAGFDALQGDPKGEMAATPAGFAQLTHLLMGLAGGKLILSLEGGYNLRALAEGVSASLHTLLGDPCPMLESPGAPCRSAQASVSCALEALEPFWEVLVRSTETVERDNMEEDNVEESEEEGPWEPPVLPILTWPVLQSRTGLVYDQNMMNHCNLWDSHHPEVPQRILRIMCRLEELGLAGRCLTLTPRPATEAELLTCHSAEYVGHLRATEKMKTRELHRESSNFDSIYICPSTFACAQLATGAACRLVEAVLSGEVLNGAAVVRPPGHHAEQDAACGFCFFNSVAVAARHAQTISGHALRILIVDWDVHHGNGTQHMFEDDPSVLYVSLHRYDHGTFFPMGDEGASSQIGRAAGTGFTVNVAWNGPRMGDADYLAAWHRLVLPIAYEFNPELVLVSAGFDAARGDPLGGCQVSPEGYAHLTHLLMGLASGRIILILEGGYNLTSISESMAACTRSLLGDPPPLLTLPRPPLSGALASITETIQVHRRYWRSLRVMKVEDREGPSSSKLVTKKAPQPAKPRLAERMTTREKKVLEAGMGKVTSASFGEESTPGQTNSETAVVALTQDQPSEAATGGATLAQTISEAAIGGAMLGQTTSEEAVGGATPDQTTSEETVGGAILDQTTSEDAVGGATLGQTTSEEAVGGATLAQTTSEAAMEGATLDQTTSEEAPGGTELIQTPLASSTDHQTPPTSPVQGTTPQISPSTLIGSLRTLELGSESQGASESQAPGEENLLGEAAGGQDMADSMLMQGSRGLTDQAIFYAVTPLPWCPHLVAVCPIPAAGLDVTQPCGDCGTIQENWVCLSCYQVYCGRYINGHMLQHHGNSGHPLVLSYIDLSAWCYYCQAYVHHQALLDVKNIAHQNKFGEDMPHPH
# Protein cereblon/Protein deacetylase HDAC6, sequence (Q96SW2 whole entry): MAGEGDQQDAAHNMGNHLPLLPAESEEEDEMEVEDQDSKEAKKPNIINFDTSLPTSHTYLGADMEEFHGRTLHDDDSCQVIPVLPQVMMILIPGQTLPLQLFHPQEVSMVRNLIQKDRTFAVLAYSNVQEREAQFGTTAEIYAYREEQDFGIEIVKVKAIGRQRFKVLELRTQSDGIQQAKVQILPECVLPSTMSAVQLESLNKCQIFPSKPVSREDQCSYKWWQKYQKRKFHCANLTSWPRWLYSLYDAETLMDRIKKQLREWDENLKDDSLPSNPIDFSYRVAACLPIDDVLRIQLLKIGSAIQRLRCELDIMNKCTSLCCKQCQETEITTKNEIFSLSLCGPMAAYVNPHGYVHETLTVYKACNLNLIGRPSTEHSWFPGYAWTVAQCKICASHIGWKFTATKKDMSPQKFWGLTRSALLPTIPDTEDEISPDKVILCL
# Protein cereblon/Protein deacetylase HDAC6 (Homo sapiens), sequence (Q96SW2 whole entry, looked up): as the sequence (Q96SW2 whole entry) above
# Protein cereblon/Protein deacetylase HDAC6 (Homo sapiens), sequence (Q9UBN7 whole entry, looked up): as the sequence (Q9UBN7 whole entry) above
# Peptidyl-prolyl cis-trans isomerase FKBP1A, sequence (P62942 whole entry): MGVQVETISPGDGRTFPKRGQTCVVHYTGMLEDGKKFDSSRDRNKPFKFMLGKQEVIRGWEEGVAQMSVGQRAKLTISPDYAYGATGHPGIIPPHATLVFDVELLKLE
smiles,measurement,setting,value
O=S(=O)(c1ccc(NC(=S)NCc2cccnc2)cc1)N1CCN(Cc2ccccc2)CC1,TGI,[1],40%
CCN(c1cc(-c2ccc(CN3CCN(C(=O)CCCCCCCC(=O)N[C@H](C(=O)N4C[C@H](OCc5ccccc5)C[C@H]4C(=O)NCc4ccc(-c5scnc5C)cc4)C(C)(C)C)CC3)cc2)cc(C(=O)NCc2c(C)cc(C)[nH]c2=O)c1C)C1CCOCC1,IC50,[2],13 nM
same,GI50,[3],> 10000 nM
Cc1cc(C)c(CNC(=O)c2cc(-c3ccc(N4CCN(CCNC(=O)CCOCCNc5cccc6c5C(=O)N(C5CCC(=O)NC5=O)C6=O)CC4)nc3)cc3c2cnn3C(C)C)c(=O)[nH]1 (centres undefined),EC50,[4],200 nM
same,Emax,[5],82%
same,EC50,[6],1500 nM
same,Emax,[7],68%
same,IC50,[2],7 nM
Cc1ncsc1-c1ccc(C(C)NC(=O)C2CC(O)CN2C(=O)C(NC(=O)COCCOCCOCCOCCNC(=O)c2ccc(CN3CCN(S(=O)(=O)c4ccc(NC(=S)NCc5ccccc5)cc4)CC3)cc2)C(C)(C)C)cc1 (centres undefined),IC50,[8],9.5 nM
same,TGI,[1],80%
same,EC50,[9],7.1 nM
same,Emax,[10],90%
C[C@H](CC(=O)N1CCC(O)(Cn2cnc3c(-c4ccc(CN)cc4)n(C)nc3c2=O)CC1)c1ccccc1,IC50,JeKo-1,> 20000 nM
same,IC50,[11],> 20000 nM
C[C@H](CC(=O)N1CCC(O)(Cn2cnc3c(-c4ccc(CNCCCCCCCCCCCNc5cccc6c5C(=O)N(C5CCC(=O)NC5=O)C6=O)cc4)n(C)nc3c2=O)CC1)c1ccccc1 (some centres undefined),EC50,[12],33 nM
same,IC50,JeKo-1,1030 nM
same,IC50,[11],1180 nM
COC1C[C@H](C[C@@H](C)[C@@H]2CC(=O)C(C)/C=C(\C)[C@@H](O)[C@@H](OC)C(=O)[C@H](C)C[C@H](C)/C=C/C=C/C=C(\C)[C@@H](OC)C[C@@H]3CC[C@@H](C)[C@](O)(O3)C(=O)C(=O)N3CCCC[C@H]3C(=O)O2)CCC1OCCOCc1cn(CCOCCOCCNc2cccc3c2C(=O)N(C2CCC(=O)NC2=O)C3=O)nn1 (some centres undefined),EC50,[13],0.27 nM
CCN(c1cc(-c2ccc(CN3CCN(C(=O)CCCCCCCC(=O)N[C@H](C(=O)N4C[C@H](O)C[C@H]4C(=O)NCc4ccc(-c5scnc5C)cc4)C(C)(C)C)CC3)cc2)cc(C(=O)NCc2c(C)cc(C)[nH]c2=O)c1C)C1CCOCC1,EC50,[14],140 nM
same,GI50,[15],1700 nM
same,GI50,[16],1400 nM
COc1cc(Nc2ncc3c(n2)-c2ccc(Cl)cc2C(c2c(F)cccc2OC)=NC3)ccc1C(=O)O [ALISERTIB],IC50,MV4-11,1.2 nM
Cc1ncsc1-c1ccc(CNC(=O)[C@@H]2C[C@@H](O)CN2C(=O)[C@@H](NC(=O)CCOCCOc2ccc(Nc3ncc(C(F)(F)F)c(NCc4cccc(N(C)S(C)(=O)=O)c4)n3)cc2)C(C)(C)C)cc1,EC50,Focal adhesion kinase 1 [17],3 nM
same,Emax,Focal adhesion kinase 1 [18],99%
COc1cc(Nc2ncc3c(n2)-c2ccc(Cl)cc2C(c2c(F)cccc2OC)=NC3)ccc1C(=O)NCCOCCOCCNC(=O)COc1cccc2c1C(=O)N(C1CCC(=O)NC1=O)C2=O (centres undefined),EC50,Aurora kinase A,28 nM
O=C(CCCO/N=C1/C(=C2/C(=O)N(Cc3cn(CCOCCNc4cccc5c4C(=O)C(N4CCC(=O)NC4=O)C5=O)nn3)c3ccccc32)Nc2ccccc21)NO (centres undefined),EC50,[19],109 nM
same,Emax,[20],88%
CNC(=O)c1ccccc1Nc1cc(Nc2ccc(N3CCN(CC(=O)N[C@H](C(=O)N4C[C@H](O)C[C@H]4C(=O)N[C@@H](C)c4ccc(-c5scnc5C)cc4)C(C)(C)C)CC3)cc2OC)ncc1C(F)(F)F,Emax,[21],85%
same,Emax,[22],60%
